Assay results published in patent US20190127359A1, “Compounds & Methods for the Enhanced Degradation of Targeted Proteins & Other Polypeptides by an E3 Ubiquitin Ligase” (YALE UNIVERSITY, priority 2012, published 2019).

Columns and labels:
VHL [1] = biological target: T1, VHL (Homo sapiens, UniProt P40337); test: WaterLOGSY and saturation transfer difference (STD) NMR binding; conditions: FIG. 2
VHL [2] = biological target: T1, VHL; test: Fluorescence polarization competition assay (HIF-1α peptide FP displacement)

binding to VHL by WaterLOGSY NMR spectroscopy (VHL [1])	IC50 (VHL [2]; IC50 (μM) 1% DMSO, 1% DMSO) [µM]	IC50 (VHL [2]; IC50 (μM) 10% DMSO, 10% DMSO) [µM]	SMILES
not			O=C(O)[C@@H]1C[C@@H](O)CN1 [L-Hyp]
	9	12.1	Cc1cc(CC(=O)N2C[C@H](O)C[C@H]2C(=O)NCc2ccc(-c3ccn[nH]3)cc2)on1 [VL160]
	35	36.4	Cc1cc(CC(=O)N2C[C@H](O)C[C@H]2C(=O)N[C@@H](CO)c2ccc(Cl)cc2)on1 [VL161]
		235	Cc1cc(CC(=O)N2C[C@H](O)C[C@H]2C(=O)N[C@H](CO)c2ccc(Cl)cc2)on1 [VL162]
	610	508	CCCNC(=O)OC[C@@H](NC(=O)[C@@H]1C[C@@H](O)CN1C(=O)Cc1cc(C)no1)c1ccc(Cl)cc1 [VL163]
	40	72.9	CCCNC(=O)OC[C@H](NC(=O)[C@@H]1C[C@@H](O)CN1C(=O)Cc1cc(C)no1)c1ccc(Cl)cc1 [VL164]
